Data from US20170348269A1, “TREATMENT OF UREA CYCLE DISORDERS IN NEONATES AND INFANTS” (Horizon Therapeutics, LLC, priority 2016, published 2017).
“And” between values parts separate entries of the source, which are not always exact repeats. Equal values may be shown once.

Key:
[1] = biological target: T1, bile salt-stimulated lipase (Homo sapiens, UniProt P19835); conditions: cited from earlier work
T1 sequence (P19835 21-753): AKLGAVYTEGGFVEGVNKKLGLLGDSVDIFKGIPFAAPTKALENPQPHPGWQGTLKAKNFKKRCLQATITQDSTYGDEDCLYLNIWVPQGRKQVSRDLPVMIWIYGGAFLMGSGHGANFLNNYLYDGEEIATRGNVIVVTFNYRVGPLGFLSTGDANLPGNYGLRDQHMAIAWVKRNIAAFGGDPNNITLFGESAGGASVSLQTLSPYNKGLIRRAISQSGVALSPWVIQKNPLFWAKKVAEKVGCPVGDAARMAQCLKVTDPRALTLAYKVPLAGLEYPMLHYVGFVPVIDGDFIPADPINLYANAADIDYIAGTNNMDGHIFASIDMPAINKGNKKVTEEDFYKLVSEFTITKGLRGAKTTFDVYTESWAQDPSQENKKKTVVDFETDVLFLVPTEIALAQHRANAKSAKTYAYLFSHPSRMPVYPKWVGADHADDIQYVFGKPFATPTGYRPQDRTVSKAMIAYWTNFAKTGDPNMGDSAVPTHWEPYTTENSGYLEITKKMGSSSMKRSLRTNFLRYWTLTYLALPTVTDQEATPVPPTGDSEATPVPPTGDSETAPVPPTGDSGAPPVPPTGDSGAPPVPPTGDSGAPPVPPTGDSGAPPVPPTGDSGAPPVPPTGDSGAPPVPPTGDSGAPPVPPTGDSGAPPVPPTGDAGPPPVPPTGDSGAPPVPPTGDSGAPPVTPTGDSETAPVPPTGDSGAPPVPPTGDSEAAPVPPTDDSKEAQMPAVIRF

[2] = system: venous ammonia in pediatric patients with UCDs; test: Studies 4/4E and 5, uncontrolled open-label studies in children under 2 years of age; format: in vivo, human
Protocol: Uncontrolled, open-label studies were conducted to assess monthly ammonia control and hyperammonemic crisis of RAVICTI® in pediatric patients with UCDs 2 months to less than 2 years of age (Study 4/4E, Study 5, and Study 6). Patients in Study 5 previously participated in Study 4/4E. A total of 17 pediatric patients with UCDs aged 2 months to less than 2 years participated in the studies.
A total of 7 patients with UCDs aged 2 months to less than 2 years participated in Studies 4/4E and 5. In these studies, there were 7, 6, 6, 6 and 3 pediatric patients who completed 1, 6, 9, 12 and 18 months, respectively (mean and median exposure of 15 and 17 months, respectively). Patients were converted from sodium phenylbutyrate to RAVICTI®. The dosage of RAVICTI® was calculated to deliver the same amount of PBA as the sodium phenylbutyrate dosage the patients were taking when they entered the study.
Patients received a mean RAVICTI® dose of 7.5 mL/m^2/day (8.2 g/m^2/day), with doses ranging from 3.3 to 12.3 mL/m^2/day (3.7 to 13.5 g/m^2/day). Patients were dosed three times a day (n=3) or four times a day (n=4).
Venous ammonia levels were monitored on days 1, 3 and 10 in Study 4 and at week 1 in Study 4E. Two patients had day 1 ammonia values of 122 micromol/L and 111 micromol/L respectively, neither had associated signs and symptoms of hyperammonemia.
During the extension period, venous ammonia levels were monitored monthly. Ammonia values across different laboratories were normalized (transformed) to a common normal pediatric range of 28 to 57 micromol/L for comparability. The mean venous ammonia values in pediatric patients at month 1, 3, 6, 9 and 12 were 58, 49, 34, 65, and 31 micromol/L during treatment with RAVICTI®, respectively.
Three patients reported a total of 3 hyperammonemic crises, as defined in Study 6. Hyperammonemic crises were precipitated by gastroenteritis, vomiting, infection or no precipitating event (one patient). There were 4 patients who had one venous ammonia level that exceeded 100 micromol/L which was not associated with a hyperammonemic crisis.

[3] = Studies 4/4E, 5 extension period, normalized to 28 to 57 micromol/L

For `O=C(CCCc1ccccc1)OCC(COC(=O)CCCc1ccccc1)OC(=O)CCCc1ccccc1` [HPN-100, benzenebutanoic acid, 1′,1″-(1,2,3-propanetriyl) ester], the “hydrolysis in vitro by bile salt-stimulated lipase” value [1] is given as “hydrolyze”, the “patients with one venous ammonia level exceeding 100 micromol/L not associated with a hyperammonemic crisis” value ([2]; Studies 4/4E, 5) is given as 4 patients and the total hyperammonemic crises ([2]; Studies 4/4E, 5, reported by three patients) is given as 3. The “mean venous ammonia, month 1” value [2, 3] was 58 µmol/L, the “mean venous ammonia, month 3” value [2, 3] was 49 µmol/L and the “mean venous ammonia, month 6” value [2, 3] was 34 µmol/L. For the same molecule, the “mean venous ammonia, month 9” value [2, 3] was 65 µmol/L, the “mean venous ammonia, month 12” value [2, 3] was 31 µmol/L and the “day 1 ammonia values of two individual patients” value ([2]; Studies 4/4E, no associated signs and symptoms of hyperammonemia, listed as RAVICTI®) was 122 µmol/L and 111 µmol/L. For the same molecule, the “patients with venous ammonia levels less than 100 micromol/L at day 10/week 1” value ([2]; Studies 4/4E, of the 7 patients) was “six” and the “day 10 ammonia value of the remaining patient” value ([2]; Study 4, asymptomatic) was 168 µmol/L.
